Our source for the Efficacy values is US9725414B2, “Fungicidal N-bicycloalkyl and N-tricycloalkyl pyrazole-4-(thio)carboxamide derivatives” (priority 2011, dated 2017).

The test system of assay [1] is Sphaerotheca fuliginea. Nature of the assay: Example B: in vivo preventive test on Sphaerotheca fuliginea (powdery mildew on cucurbits), gherkin plants. As to conditions: 500 ppm of active ingredient, grading 12 days after contamination. The essentials: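 Gherkin plants grown at 24 °C were sprayed with compound at the Z11 cotyledon stage; controls received acetone/tween/DMSO/water without active. 24 h later, cotyledons were inoculated by spraying with Sphaerotheca fuliginea spores (100 000 spores per mL).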

The next assay deals with Botrytis cinerea. Nature of the assay: Example P: in vivo preventive test on Botrytis cinerea (grey mould), gherkin plants. Particulars: 500 ppm of active ingredient, grading 4 to 5 days after contamination. In a few lines:
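Gherkin plants at Z11 cotyledon stage sprayed preventively with active ingredient, then inoculated 24 h later with B. cinerea spores (50 000/mL) in PDB/fructose nutrient solution. Incubation at 17 °C and 90% RH; % efficacy graded 4–5 days post-inoculation against solvent-treated controls.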

A further assay deals with Uromyces appendiculatus. Nature of the assay: Example Q: in vivo preventive test on Uromyces appendiculatus (bean rust). As to conditions: Uromyces appendiculatus on bean plants, 500 ppm of active ingredient, grading 11 days after contamination. In a few lines:
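Saxa bean plants at 2-leaf stage, grown at 24° C., sprayed preventively with compound; 24 h later inoculated with U. appendiculatus spores (150 000 spores per mL). Percent efficacy graded 11 days after inoculation versus solvent-treated controls.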

In the next assay the test system is Pyrenophora teres. Nature of the assay: Example F: in vivo preventive test on Pyrenophora teres (barley), acetone/tween/DMSO preparation. Particulars: 500 ppm of active ingredient, barley, grading 14 days after contamination. In a few lines:
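Barley ("Plaisant") grown at 22° C was sprayed at the 1-leaf stage (10 cm) with active ingredient in acetone/tween/DMSO/water, with solvent-only controls. After 24 h, leaves were inoculated with Pyrenophora teres spores (12 000 spores per mL) from 12-day cultures. % efficacy versus controls graded 14 days post-contamination.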

Another assay deals with Septoria tritici. Nature of the assay: Example I: in vivo preventive test on Septoria tritici (wheat), acetone/tween/DMSO preparation. As to conditions: 500 ppm of active ingredient, grading 24 days after contamination. In a few lines:
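Scipion wheat grown at 22° C, sprayed at 1-leaf stage (10 cm); controls received acetone/tween/DMSO/water without active. Inoculated 24 h later with S. tritici spores (500 000/mL), held 72 h at 18° C, 100% RH, then 21 days at 90% RH. % efficacy vs controls scored 24 days post-inoculation.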

A further assay deals with Alternaria brassicae. The experiment in a line: Example D: in vivo preventive test on Alternaria brassicae (leaf spot on radish). Particulars: 500 ppm of active ingredient, grading 6 days after contamination. The essentials: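 Radish plants at cotyledon stage were sprayed with compound; controls got the acetone/tween/DMSO/water mix alone. After 24 h they were inoculated with Alternaria brassicae spores (50 000 spores per mL) and kept at 20 °C, 100% relative humidity. % efficacy versus controls was graded 6 days post-inoculation.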

The next assay concerns Alternaria solani. Nature of the assay: Example C: in vivo preventive test on Alternaria solani (tomato). As to conditions: 500 ppm of active ingredient, evaluated 7 days after inoculation. In a few lines: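 Young tomato plants sprayed preventively with compound formulated in DMF/emulsifier and diluted with water, then inoculated one day later with Alternaria solani spores. Plants were held one day at about 22° C, 100% humidity, then at about 20° C, 96% humidity.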

Assay [2] deals with Sphaerotheca fuliginea. Nature of the assay: Example A: in vivo preventive test on Sphaerotheca fuliginea (cucumber). Particulars: 500 ppm of active ingredient, evaluated 7 days after inoculation. As to the method:
In Vivo Preventive Test on Sphaerotheca fuliginea (Cucumber) Solvent: 49 parts by weight of N,N-dimethylformamide Emulsifier: 1 part by weight of alkylarylpolyglycolether To produce a suitable preparation of active compound, 1 part by weight of active compound is mixed with the stated amounts of solvent and emulsifier, and the concentrate is diluted with water to the desired concentration. To test for preventive activity, young plants are sprayed with the preparation of active compound at the stated rate of application. One day after this treatment, the plants are inoculated with an aqueous spore suspension of Sphaerotheca fuliginea. Then the plants are placed in a greenhouse at approximately 23° C. and a relative atmospheric humidity of approximately 70%.

`Cn1nc(C(F)F)c(C(=O)N(C2CC2)C2CC3CCCCC3C2)c1F` (centres unmarked) [Example 12]: the Efficacy in the assay with Sphaerotheca fuliginea [1] is given as 98%; in the assay on Botrytis cinerea it was 100%; with Uromyces appendiculatus it was 97%; with Pyrenophora teres, 100%; with Septoria tritici, 100%.

With `Cn1nc(C(F)F)c(C(=O)N(C2CC2)C2CCCC3CCCC32)c1F` (centres unmarked) [Example 19], the Efficacy is 100% in the assay with Sphaerotheca fuliginea [1]; 100% in the assay with Botrytis cinerea; 100% in the assay with Uromyces appendiculatus; 100% in the assay with Pyrenophora teres; 96% in the assay with Septoria tritici; 100% in the assay with Alternaria brassicae.

As to `Cn1cc(C(=O)N(C2CC2)C2CCCC3CCCC32)c(C(F)F)n1` (centres unmarked) [Example 20], the Efficacy with Sphaerotheca fuliginea [1] was 100%; with Botrytis cinerea, 100%; with Uromyces appendiculatus it was 100%; in the assay on Pyrenophora teres, 97%; with Septoria tritici it was 96%.

Turning to `Cn1nc(C(F)F)c(C(=O)N(CC2CCC3CCCC3C2)C2CC2)c1F` (centres unmarked) [Example 62], the Efficacy with Sphaerotheca fuliginea [1] is 100%; with Uromyces appendiculatus, 100%; in the assay on Pyrenophora teres, 97%; with Septoria tritici, 100%.

`Cn1nc(C(F)F)c(C(=O)N(CC2(Cc3ccccc3)CC3CCC2C3)C2CC2)c1F` (centres unmarked) [Example 69]: the Efficacy came to 100% in the assay with Sphaerotheca fuliginea [1]; 96% in the assay with Uromyces appendiculatus; 97% in the assay on Pyrenophora teres; 97% in the assay on Septoria tritici; 96% in the assay with Alternaria brassicae.

As for `Cn1nc(C(F)F)c(C(=O)N(CC2CC3CCC2C3)C2CC2)c1F` (centres unmarked) [Example 71], the Efficacy with Alternaria solani and with Sphaerotheca fuliginea [2] was 100% each time.

Regarding `CC(C1CC2CCC1C2)N(C(=O)c1c(C(F)F)nn(C)c1F)C1CC1` (centres unmarked) [Example 93], the figures for the Efficacy with Alternaria solani and with Sphaerotheca fuliginea [2] were 95% and 100%, respectively.
